This passage reports GI50 results from US7932242B2, “Substituted phenoxy-and phenylthio-derivatives for treating proliferative disorders” (Temple University - Of The Commonwealth System of Higher …, priority 2004, dated 2011).

Assay type in all cases: cell-based
One assay deals with DU145. Description: Tumor cell growth inhibition, Trypan blue exclusion, DU145. The settings on record: Homo sapiens, cell viability after 96 hours vs vehicle (DMSO). Here is the method:
(§1) The effect of Compounds of Formula I on tumor cells of prostate, colon, lung, pancreatic, brain, renal, gastrointestinal, epidermal, lymphocytic, ovary and breast origin was examined by utilizing a variety of cancer cell lines (listed in Table 6). Cells were plated at density levels of 1.0×10^5 cells per well in six-well plates. Cell cultures were maintained at 37° C. in a humidified atmosphere of 5% CO2.
(§2) In addition, DU-145 cells were treated with three additional compounds of the invention: (E)-4-(3-(5-((2,4,6-trimethoxystyrylsulfonyl)methyl)-2-methoxyphenoxy)propyl)morpholine; (E)-5-((2,4,6-trimethoxystyrylsulfonyl)methyl)-2-methoxyphenyl 2-(dimethylamino)acetate; and (E)-5-((2,4,6-trimethoxystyrylsulfonyl)methyl)-2-methoxyphenyl 4-methylbenzenesulfonate, the structures of which are shown in Table 7.
(§3) Values are reported as the GI50, i.e., the concentration (μM) required for 50% growth inhibition as compared to vehicle (DMSO) treated cells. The notations “ER+” and “ER−” designate breast cancer lines that are responsive and non-responsive to estrogen, respectively. The notations “AR+” and “AR−” designate prostate cancer lines that are responsive and non-responsive to androgens, respectively. […] For cell lines designated by “*”, the dose response curve for the compound (E)-5-((2,4,6-trimethoxystyrylsulfonyl)methyl)-2-methoxyphenol (Example 1) is set forth in FIG. 1.

A further assay concerns MIA-PACA2. Description: Tumor cell growth inhibition, Trypan blue exclusion, MIA-PACA2. Conditions: Homo sapiens, MIA PaCa-2; MIA-PACA2, Pancreatic; cell viability after 96 hours vs vehicle (DMSO). Here is the method: as §1
(§4) Cells of 36 different cell lines were treated with (E)-5-((2,4,6-trimethoxystyrylsulfonyl)methyl)-2-methoxyphenol (Example 1) or (E)-5-((2,4,6-trimethoxystyrylsulfonyl)methyl)-2-methoxy-phenyl dihydrogen phosphate disodium salt (Example 5) at doses ranging from 2 nM to 10 nM concentration, and cell viability was determined after 96 hours by the Trypan blue exclusion method. In addition, DU-145 cells were treated with three additional compounds of the invention: (E)-4-(3-(5-((2,4,6-trimethoxystyrylsulfonyl)methyl)-2-methoxyphenoxy)propyl)morpholine; (E)-5-((2,4,6-trimethoxystyrylsulfonyl)methyl)-2-methoxyphenyl 2-(dimethylamino)acetate; and (E)-5-((2,4,6-trimethoxystyrylsulfonyl)methyl)-2-methoxyphenyl 4-methylbenzenesulfonate, the structures of which are shown in Table 7.
(§5) Values are reported as the GI50, i.e., the concentration (μM) required for 50% growth inhibition as compared to vehicle (DMSO) treated cells. […]

For a further assay, the system named is A549. Description: Tumor cell growth inhibition, Trypan blue exclusion, A549. The settings on record: Homo sapiens; A549, Nsclc; cell viability after 96 hours vs vehicle (DMSO). Here is the method:
as §1, §4, §5

A further assay relates to T47D. Description: Tumor cell growth inhibition, Trypan blue exclusion, T47D. Conditions: Homo sapiens, Breast (Er+), cell viability after 96 hours vs vehicle (DMSO). Here is the method:
as §1, §4, §5

The next assay concerns Raji. Description: Tumor cell growth inhibition, Trypan blue exclusion, Raji. Conditions: Homo sapiens, Burkitt's Lymphoma (B-Cell), cell viability after 96 hours vs vehicle (DMSO). Here is the method:
as §1, §4, §5

The test system of the next assay is 2008/17/4. Description: Tumor cell growth inhibition, Trypan blue exclusion, 2008/17/4. Conditions: 2008/17/4, Resistant Ovarian; cell viability after 96 hours vs vehicle (DMSO). Here is the method: as §1, §4, §5
A further assay has as its system SW480. Description: Tumor cell growth inhibition, Trypan blue exclusion, SW480. The settings on record: Homo sapiens; SW480, Colo-Rectal; cell viability after 96 hours vs vehicle (DMSO). Here is the method: as §1, §4, §5
The subject of a further assay is Mes-Sa. Description: Tumor cell growth inhibition, Trypan blue exclusion, Mes-Sa. Conditions: Homo sapiens, Sarcoma, cell viability after 96 hours vs vehicle (DMSO). Here is the method: as §1, §4, §5
The test system of the next assay is DLD-1. Description: Tumor cell growth inhibition, Trypan blue exclusion, DLD-1. Conditions: Homo sapiens; DLD-1, Colo-Rectal; cell viability after 96 hours vs vehicle (DMSO). Here is the method:
as §1, §4, §5

The subject of another assay is 2008. Description: Tumor cell growth inhibition, Trypan blue exclusion, 2008. The settings on record: 2008, Ovarian; cell viability after 96 hours vs vehicle (DMSO). Here is the method: as §1, §4, §5
The next assay deals with COLO-320. Description: Tumor cell growth inhibition, Trypan blue exclusion, COLO-320. Conditions: Homo sapiens; COLO-320, Colo-Rectal; cell viability after 96 hours vs vehicle (DMSO). Here is the method: as §1, §4, §5
Another assay concerns RF48. Description: Tumor cell growth inhibition, Trypan blue exclusion, RF48. Conditions: RF48, Gastric; cell viability after 96 hours vs vehicle (DMSO). Here is the method:
as §1, §4, §5

The subject of another assay is PC-3. Description: Tumor cell growth inhibition, Trypan blue exclusion, PC-3. Conditions: Homo sapiens; PC-3, Prostate; cell viability after 96 hours vs vehicle (DMSO). Here is the method: as §1, §4, §5
The test system of the next assay is H187. Description: Tumor cell growth inhibition, Trypan blue exclusion, H187. Conditions: Homo sapiens, NCI-H187; H187, Sclc; cell viability after 96 hours vs vehicle (DMSO). Here is the method: as §1, §4, §5
A further assay relates to LNCAP. Description: Tumor cell growth inhibition, Trypan blue exclusion, LNCAP. Conditions: Homo sapiens, Prostate (Ar+), cell viability after 96 hours vs vehicle (DMSO). Here is the method: as §1, §4, §5
In a further assay the test system is K562. Description: Tumor cell growth inhibition, Trypan blue exclusion, K562. Conditions: Homo sapiens; K562, Cml; cell viability after 96 hours vs vehicle (DMSO). Here is the method:
as §1, §4, §5

The test system of a further assay is MCF-7. Description: Tumor cell growth inhibition, Trypan blue exclusion, MCF-7. The settings on record: Homo sapiens, MCF7; MCF-7, Breast (Er+); cell viability after 96 hours vs vehicle (DMSO). Here is the method: as §1, §4, §5
Assay [1] concerns CEM. Description: Tumor cell growth inhibition, Trypan blue exclusion, Cem (second listing). Conditions: Homo sapiens, Leukemic (second listing, parent of Cem/C2), cell viability after 96 hours vs vehicle (DMSO). Here is the method: as §1, §4, §5
The next assay has as its system HCT-15. Description: Tumor cell growth inhibition, Trypan blue exclusion, HCT-15. The settings on record: Homo sapiens; HCT-15, Colo-Rectal; cell viability after 96 hours vs vehicle (DMSO). Here is the method: as §1, §4, §5
Another assay deals with H157. Description: Tumor cell growth inhibition, Trypan blue exclusion, H157. The settings on record: Homo sapiens, NCI-H157; H157, Nsclc; cell viability after 96 hours vs vehicle (DMSO). Here is the method:
as §1, §4, §5

For a further assay, the system named is BT20. Description: Tumor cell growth inhibition, Trypan blue exclusion, BT20. The settings on record: Homo sapiens, BT-20; BT20, Breast (Er−); cell viability after 96 hours vs vehicle (DMSO). Here is the method:
as §1, §2, §3

A further assay relates to CAKI-2. Description: Tumor cell growth inhibition, Trypan blue exclusion, CAKI-2. Conditions: Homo sapiens; CAKI-2, Renal; cell viability after 96 hours vs vehicle (DMSO). Here is the method:
as §1, §4, §5

Another assay relates to Sk-OV-3. Description: Tumor cell growth inhibition, Trypan blue exclusion, Sk-OV-3. The settings on record: Homo sapiens; Sk-OV-3, Ovarian; cell viability after 96 hours vs vehicle (DMSO). Here is the method:
as §1, §4, §5

The test system of the next assay is RF1. Description: Tumor cell growth inhibition, Trypan blue exclusion, RF1. The settings on record: RF1, Gastric; cell viability after 96 hours vs vehicle (DMSO). Here is the method:
as §1, §4, §5

Another assay relates to SK-MEL-28. Description: Tumor cell growth inhibition, Trypan blue exclusion, SK-MEL-28. The settings on record: Homo sapiens; SK-MEL-28, Melanoma; cell viability after 96 hours vs vehicle (DMSO). Here is the method: as §1, §4, §5
A further assay relates to MOLT-4. Description: Tumor cell growth inhibition, Trypan blue exclusion, MOLT-4. The settings on record: Homo sapiens; MOLT-4, T-Lymphoblastic: All; cell viability after 96 hours vs vehicle (DMSO). Here is the method:
as §1, §4, §5

The next assay deals with Namalwa. Description: Tumor cell growth inhibition, Trypan blue exclusion, Namalwa. The settings on record: Burkitt's Lymphoma (B-Cell), cell viability after 96 hours vs vehicle (DMSO). Here is the method:
as §1, §4, §5

The subject of another assay is Daudi. Description: Tumor cell growth inhibition, Trypan blue exclusion, Daudi. Conditions: Homo sapiens, Burkitt's Lymphoma (B-Cell), cell viability after 96 hours vs vehicle (DMSO). Here is the method: as §1, §4, §5
The next assay relates to N417. Description: Tumor cell growth inhibition, Trypan blue exclusion, N417. The settings on record: N417, Sclc; cell viability after 96 hours vs vehicle (DMSO). Here is the method:
as §1, §4, §5

Another assay has as its system Mes-Sa/Dx5. Description: Tumor cell growth inhibition, Trypan blue exclusion, Mes-Sa/Dx5. The settings on record: Homo sapiens; Mes-Sa/Dx5, Resistant Sarcoma; cell viability after 96 hours vs vehicle (DMSO). Here is the method: as §1, §4, §5
Assay [2] deals with CEM. Description: Tumor cell growth inhibition, Trypan blue exclusion, CEM. The settings on record: Homo sapiens, CCRF-CEM, Leukemic, cell viability after 96 hours vs vehicle (DMSO). Here is the method: as §1, §4, §5
The test system of another assay is OV-CAR-3. Description: Tumor cell growth inhibition, Trypan blue exclusion, OV-CAR-3. The settings on record: Homo sapiens, OVCAR-3; OV-CAR-3, Ovarian; cell viability after 96 hours vs vehicle (DMSO). Here is the method: as §1, §4, §5
In the next assay the test system is U87. Description: Tumor cell growth inhibition, Trypan blue exclusion, U87. Conditions: Homo sapiens, U-87 MG; U87, Glioblastoma; cell viability after 96 hours vs vehicle (DMSO). Here is the method: as §1, §4, §5
Another assay concerns Cem/C2. Description: Tumor cell growth inhibition, Trypan blue exclusion, Cem/C2. The settings on record: Homo sapiens; Cem/C2, Resistant Leukemic; cell viability after 96 hours vs vehicle (DMSO). Here is the method:
as §1, §4, §5

Another assay has as its system AGS. Description: Tumor cell growth inhibition, Trypan blue exclusion, AGS. Conditions: Homo sapiens, Gastric, cell viability after 96 hours vs vehicle (DMSO). Here is the method:
as §1, §4, §5

In a further assay the test system is HCT-116. Description: Tumor cell growth inhibition, Trypan blue exclusion, HCT-116. The settings on record: Homo sapiens; HCT-116, Colo-Rectal; cell viability after 96 hours vs vehicle (DMSO). Here is the method:
as §1, §4, §5

Setting [3] is: DU-145 cells, Table 7, read-out: DU-145 GI50.
Where [4] appears, read: DU-145, DU145, Prostate (Ar−), read-out: GI50.

Molecules are shown by their SMILES. Counter-ions that a name gives are not always drawn. Like-named read-outs stand apart in the source and are kept apart here.

Broadly, the GI50 is the concentration at which growth is held to half of that of the control. For `COc1cc(OC)c(/C=C/S(=O)(=O)Cc2ccc(OC)c(OCCCN3CCOCC3)c2)c(OC)c1` [(E)-4-(3-(5-((2,4,6-trimethoxystyrylsulfonyl)methyl)-2-methoxyphenoxy)propyl)morpholine], the GI50 in the assay with DU145 (setting [3]) is greater than 10000 nM.
Still for that read-out and setting: to `COc1cc(OC)c(/C=C/S(=O)(=O)Cc2ccc(OC)c(OC(=O)CN(C)C)c2)c(OC)c1` [(E)-5-((2,4,6-trimethoxystyrylsulfonyl)methyl)-2-methoxyphenyl 2-(dimethylamino)acetate] belongs 4 to 10 nM.
Regarding `COc1cc(OC)c(/C=C/S(=O)(=O)Cc2ccc(OC)c(OS(=O)(=O)c3ccc(C)cc3)c2)c(OC)c1` [(E)-5-((2,4,6-trimethoxystyrylsulfonyl)methyl)-2-methoxyphenyl 4-methylbenzenesulfonate], the GI50 with DU145 (setting [3]) was greater than 1000 nM.
With `COc1cc(OC)c(/C=C/S(=O)(=O)Cc2ccc(OC)c(O)c2)c(OC)c1` [Example 1, (E)-5-((2,4,6-trimethoxystyrylsulfonyl)methyl)-2-methoxyphenol], the GI50 stood at 3 nM with MIA-PACA2; 10 nM in the assay on A549; 10 nM in the assay with T47D; 1 nM with Raji; 6 nM in the assay with 2008/17/4; 5 nM in the assay on SW480. Also, the GI50 stood at 5 nM in the assay with Mes-Sa; 7 nM in the assay on DLD-1; 5 nM with 2008; 3 nM in the assay with COLO-320; 1 nM in the assay with RF48; 5 nM with PC-3. In addition, the GI50 is 3 nM in the assay on H187; 10 nM in the assay on LNCAP; 5 nM in the assay on DU145 (setting [4]); 4 nM in the assay with K562; 10 nM in the assay on MCF-7; 4 nM in the assay with CEM [1]. Moreover, the GI50 was found to be 7 nM in the assay with HCT-15; 7 nM with H157; 80 nM in the assay with BT20; 6 nM with CAKI-2; 4 nM in the assay with Sk-OV-3; 3 nM in the assay with RF1. Moreover, the GI50 in the assay with SK-MEL-28 turned out to be 7 nM; in the assay on MOLT-4, 3 nM; in the assay on Namalwa, 3 nM; with Daudi, 3 nM; in the assay with N417 it was 3 nM; in the assay with Mes-Sa/Dx5 it was 5 nM. Besides, the GI50 with CEM [2] came out at 4 nM; in the assay with OV-CAR-3, 30 nM; with U87, 7 nM; in the assay with Cem/C2, 3 nM; in the assay with AGS it was 5 nM; in the assay with HCT-116, 6 nM.
Regarding `COc1cc(OC)c(/C=C/S(=O)(=O)Cc2ccc(OC)c(OP(=O)(O)O)c2)c(OC)c1` [Example 5, (E)-5-((2,4,6-trimethoxystyrylsulfonyl)methyl)-2-methoxyphenyl dihydrogen phosphate, disodium salt], the GI50 came to 4 nM in the assay on MIA-PACA2; 20 nM in the assay on A549; 12 nM in the assay on DLD-1; 5 nM in the assay on DU145 (setting [4]); 12 nM in the assay with HCT-15; 12 nM with H157. For the same compound, the GI50 in the assay with BT20 amounted to 8 nM; in the assay on SK-MEL-28 it was 12 nM; with N417, 4 nM; with U87, 9 nM; in the assay with AGS, 9 nM.
